One assay deals with T1, MAO-A (Homo sapiens, UniProt P21397).
T1 construct: purchased Sigma-Aldrich M7316
T1 sequence (P21397 1-527): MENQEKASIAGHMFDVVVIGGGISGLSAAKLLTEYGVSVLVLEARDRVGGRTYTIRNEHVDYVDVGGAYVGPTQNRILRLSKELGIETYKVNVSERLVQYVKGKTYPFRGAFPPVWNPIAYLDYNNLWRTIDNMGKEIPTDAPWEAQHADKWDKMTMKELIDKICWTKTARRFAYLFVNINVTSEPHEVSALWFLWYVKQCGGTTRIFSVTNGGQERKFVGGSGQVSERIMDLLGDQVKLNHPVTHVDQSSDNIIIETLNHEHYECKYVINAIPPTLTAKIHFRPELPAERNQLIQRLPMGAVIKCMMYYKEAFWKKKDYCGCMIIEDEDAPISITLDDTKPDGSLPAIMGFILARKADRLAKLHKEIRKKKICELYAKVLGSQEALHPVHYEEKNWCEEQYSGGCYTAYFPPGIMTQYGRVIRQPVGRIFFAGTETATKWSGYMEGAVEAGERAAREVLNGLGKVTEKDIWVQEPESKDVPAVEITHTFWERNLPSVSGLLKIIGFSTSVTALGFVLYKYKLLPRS
In words: MAO-A biochemical assay (MAO-Glo). The following applies: IC50; read-out: MAO-A. An excerpt:
The MAO-Glo™ Assay (commercially available from PROMEGA, #V1402) provides a sensitive method for the measurement of monoamine oxidase (MAO) activity (Valley, M. P. et al., 2006, Anal. Biochem. 359: 238-246) from a variety of tissues, biofluids or recombinant expressed or purified enzymes. As substrate a derivate of the beetle luciferin ((4S)-4,5-dihydro-2-(6-hydroxybenzothiazolyl)-4-thiazole-carboxylic acid) is used, which is oxidized at a primary amine moiety. After a spontaneous elimination and a catalyzed esterase reaction, the turnover of luciferin by the luciferase is recorded as a signal of MAO-A activity.
An aliquot of 3 μL of the compound dilution is added to a 384 well plate (Optiplate, PS, flat bottom F, black, PERKIN ELMER, #6007270) in a DMSO concentration of 1.025%.
A MAO-A enzyme aliquot (M7316, Sigma-Aldrich) is thawed on ice, diluted in reaction buffer to 1.25 mU/μL and added in a volume of 5 μL to the wells. After incubation for 20 minutes at 37° C., 2 μL of MAO substrate (dissolved in DMSO at 16 mM, diluted to 20 μM in assay buffer to obtain a final assay concentration of 4 μM) is added, mixed, and the mixture further incubated for 60 minutes at 37° C.
The turnover of the substrate is determined by the addition of 10 μL of the Detection Reagent mix which was generated by the addition of reconstitution buffer with esterase (PROMEGA, #V1402) to the luciferin detection reagent (PROMEGA, #V1402). After an incubation period of 20 minutes at 37° C., the luminescent signal is measured with a […], e.g. Envision 2104 Multilabel Reader (PERKIN ELMER).

In another assay the target is T2, AOC2 (Homo sapiens, UniProt O75106).
T2 construct: host or cells: HEK293 cells (transient transfection), cell homogenate
T2 sequence (O75106 1-756): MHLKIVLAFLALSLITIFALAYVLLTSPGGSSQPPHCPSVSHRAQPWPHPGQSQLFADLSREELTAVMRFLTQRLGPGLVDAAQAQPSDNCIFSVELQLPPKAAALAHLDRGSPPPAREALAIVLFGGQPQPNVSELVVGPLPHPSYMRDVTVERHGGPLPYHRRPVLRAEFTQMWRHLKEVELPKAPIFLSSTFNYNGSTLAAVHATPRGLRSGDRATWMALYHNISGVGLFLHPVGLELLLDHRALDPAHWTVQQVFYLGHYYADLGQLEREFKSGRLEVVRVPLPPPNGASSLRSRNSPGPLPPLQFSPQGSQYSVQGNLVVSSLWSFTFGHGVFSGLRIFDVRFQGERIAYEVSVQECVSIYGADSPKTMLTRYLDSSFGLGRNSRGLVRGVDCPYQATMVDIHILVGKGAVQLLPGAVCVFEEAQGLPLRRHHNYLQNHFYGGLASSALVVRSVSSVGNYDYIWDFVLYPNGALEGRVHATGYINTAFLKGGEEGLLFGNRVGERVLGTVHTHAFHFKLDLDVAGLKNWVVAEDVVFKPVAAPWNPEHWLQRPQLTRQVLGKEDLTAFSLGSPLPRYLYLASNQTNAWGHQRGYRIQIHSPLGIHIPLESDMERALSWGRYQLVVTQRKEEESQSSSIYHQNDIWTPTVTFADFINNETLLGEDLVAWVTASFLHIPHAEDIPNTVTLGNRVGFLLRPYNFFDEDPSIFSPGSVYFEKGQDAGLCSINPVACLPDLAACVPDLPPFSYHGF
The experiment in a line: AOC2 biochemical assay (Amplex Red). As to conditions: read-out: AOC2 IC50. As to the method: The Amplex® Red Assay (commercially available from Thermo Fisher Scientific) provides a sensitive method for the detection of H2O2 generated during enzymatic reactions like the amine oxidation catalyzed by AOC2. […] An aliquot of 5 μL of the compound dilution is added to a 96 well plate (flat bottom F, black, GREINER bio-one, #655900) in a DMSO concentration of 2%. […] Cells are cultured for 3 days in EMEM culture medium containing 10% FCS (#04-00-1A, Biological Industries). After washing twice with ice cold PBS, cells are lysed by mechanic homogenation and cleared supernatants are shock frozen in liquid nitrogen and stored at -80° C. For the determination of AOC2 enzymatic activity cell lysates are thawed on ice and 1:1 diluted with reaction buffer. An Aliquot of 45 μL is added to the compound dilution and incubated for 30 min at 37° C. The enzymatic reaction is started with the addition of 50 μL of Amplex® Red reaction mix (final assay concentration: 100 mM sodiumphosphate, 120 μM Amplex® Red reagent (#A22177 Molecular Probes), 1.5 U/mL Horseradish Peroxidase (#P8375 Sigma-Aldrich), 2 mM phenylethylamine (#[…] Sigma-Aldrich), 0.05% Pluronic F-127 (#P3000MP Sigma-Aldrich), pH 7.4, 37° C.). The turnover per time of the substrate is determined directly with a fluorescence reader (Ex 540 nm/Em 590 nm) like Envision 2104 Multilabel Reader (PERKIN ELMER) for 60 min. (cf. Anal Biochem (1997) 253:169-174; Anal Biochem (1997) 253:162-168)

Counter-ions that a name gives are not always drawn.

As for `NC/C(=C/F)COc1ccc(S(=O)(=O)N2CCC(CC(=O)O)CC2)cn1` [Example 44, trifluoroacetate], the figures for the IC50 at MAO-A and at AOC2 were greater than 50000 nM and 1 nM, respectively.

(Values after patent US12213970B2, “Pyridinyl sulfonamide derivatives, pharmaceutical compositions and uses thereof” (Boehringer Ingelheim International GmbH, priority 2018, dated 2025).)
